Assays:
Format in all cases: cell-based
MIA-PaCa-2 cells = test: Anti-proliferative activity in MIA-PaCa-2 cells (CellTiter-Glo); conditions: Homo sapiens, 72 h, MIA-PaCa-2 cells (KRAS G12C), three days, read-out: IC50 (cell viability)
Description: MIA-PaCa-2 cells were treated with KRAS inhibitors at the density of 800 cells/well in 384-well plate for three days. Cell viability was evaluated using CellTiter-Glo® Luminescent Cell Viability Assay.

AGS cells = test: Anti-proliferative activity in AGS cells (CellTiter-Glo); conditions: Homo sapiens, 72 h, AGS cells (KRAS G12D), three days, read-out: IC50 (cell viability)
Description: AGS cells were treated with KRAS inhibitors at the density of 800 cells/well in 384-well plate for three days. Cell viability was evaluated using CelITiter-Glo® Luminescent Cell Viability Assay. […] AGS cells harbor KRAS G12D mutation. The improved antiproliferation effects of the compounds indicate stronger inhibition towards G12D mutation.

[1] = test system: p-ERK in PC-9 cells (KRAS wild-type); test: Downstream evaluation in PC-9 cells (p-ERK immunoblot); conditions: Homo sapiens, 8 h and 24 h, read-out: inhibition of the downstream signaling measured by p-ERK
Description: PC-9 cells were treated with Compound 006 (DGY-12-161) in the 6-well plate at indicated concentrations for 8 h and 24 h, respectively. The intensities of the bands were quantified in LICOR Odyssey® CLx Imaging System. PC-9 cells are KRAS wild-type.

[2] = test system: downstream signaling (p-ERK) in PANC-1 cells (KRAS G12D); test: Downstream evaluation in PANC-1 cells (p-ERK immunoblot); conditions: Homo sapiens, 8 h and 24 h, read-out: IC50 of inhibition of downstream signaling
Description: PANC-1 cells were treated with Compound 006 (DGY-12-161) in the 6-well plate at indicated concentrations for 8 h and 24 h, respectively. The intensities of the bands were quantified in LICOR Odyssey® CLx Imaging System. PANC-1 cells harbor KRAS G12D mutation.

**Q.** `Oc1cc(-c2c(Cl)cc3c(N4[C@@H]5CC[C@H]4CNC5)nc(OCC45CCCN4CCC5)nc3c2F)c2ccccc2c1` [Compound 001, 4-(4-((1R,5S)-3,8-diazabicyclo[3.2.1]octan-8-yl)-6-chloro-8-fluoro-2-((tetrahydro-1H-pyrrolizin-7a(5H)-yl)methoxy)quinazolin-7-yl)naphthalen-2-ol] was tested. Which IC50 (MIA-PaCa-2 cells) did it give?
**A.** 2300 nM

**Q.** And the IC50 (AGS cells)?
**A.** 600 nM

**Q.** For `CN(C)C1CN(c2nc(N3[C@@H]4CC[C@H]3CNC4)c3cc(Cl)c(-c4cc(O)cc5ccccc45)c(F)c3n2)C1` [Compound 006, 4-(4-((1R,5S)-3,8-diazabicyclo[3.2.1]octan-8-yl)-6-chloro-2-(3-(dimethylamino)azetidin-1-yl)-8-fluoroquinazolin-7-yl)naphthalen-2-ol], which IC50 (MIA-PaCa-2 cells) is on record?
**A.** 2200 nM

**Q.** And the inhibition at 10 µM [1]?
**A.** ~50%

**Q.** What about the IC50 [2] of the same compound?
**A.** < 10000 nM

**Q.** What about the IC50 (AGS cells) of the same compound?
**A.** 1400 nM

Source: patent publication US20250122210A1, “SMALL MOLECULE INHIBITORS OF KRAS G12D MUTANT” (DANA-FARBER CANCER INSTITUTE, INC., priority 2021, published 2025)
